Results from PubChem BioAssay AID2060910 (Molecular Pharmacology Branch, DTP, NCI, 2025).

Test system: 242566-281-R-J2-PDC complex spheroid viability
Test: Anticancer human tumor 242566-281-R-J2-PDC patient-derived pancreatic carcinoma cell line growth inhibition [RAS]
Settings: for IC50: curve of first compound; for viability, T/C: stronger effect = lower value
Summary of the method: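 Multi-cell-type spheroids: tumor cells plus HUVEC endothelial cells and mesenchymal stem cells. RAS-pathway inhibitors were combined with targeted agents, each dosed in half-log steps down from clinical Cmax, or from 10 microM when Cmax was unknown.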

[1] = second compound 0.000949 µM, first compound 0.0316 µM
[2] = second compound 0.000949 µM, first compound 0.1 µM
[3] = second compound 0.000949 µM, first compound 0.316 µM
[4] = second compound 0.000949 µM, first compound 1 µM
[5] = second compound 0.003 µM, first compound 0.0316 µM
[6] = second compound 0.003 µM, first compound 0.1 µM
[7] = second compound 0.003 µM, first compound 0.316 µM
[8] = second compound 0.003 µM, first compound 1 µM
[9] = second compound 0.00949 µM, first compound 0.0316 µM
[10] = second compound 0.00949 µM, first compound 0.1 µM
[11] = second compound 0.00949 µM, first compound 0.316 µM
[12] = second compound 0.00949 µM, first compound 1 µM
[13] = second compound 0.03 µM, first compound 0.0316 µM
[14] = second compound 0.03 µM, first compound 0.1 µM
[15] = second compound 0.03 µM, first compound 0.316 µM
[16] = second compound 0.03 µM, first compound 1 µM
[17] = second compound 0.0949 µM, first compound 0.0316 µM
[18] = second compound 0.0949 µM, first compound 0.1 µM
[19] = second compound 0.0949 µM, first compound 0.316 µM
[20] = second compound 0.0949 µM, first compound 1 µM
[21] = second compound 0.3 µM, first compound 0.0316 µM
[22] = second compound 0.3 µM, first compound 0.1 µM
[23] = second compound 0.3 µM, first compound 0.316 µM
[24] = second compound 0.3 µM, first compound 1 µM
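Also: spheroids exposed to compound for 7 days before readout.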
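For viability, T/C in this document: 100% = DMSO vehicle control wells.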

## CCN1CCN(Cc2ccc(Nc3ncc(F)c(-c4cc(F)c5nc(C)n(C(C)C)c5c4)n3)nc2)CC1 + CCn1c(-c2cc(N3CCN(C)CC3)cnc2C(C)OC)c2c3cc(ccc31)-c1csc(n1)CC(NC(=O)C1CC1C)C(=O)N1CCCC(N1)C(=O)OCC(C)(C)C2
Second compound 0.000949 µM
  IC50: > 1000 nM
Second compound 0.003 µM
  IC50: > 1000 nM
Second compound 0.00949 µM
  IC50: < 3.16 nM
Second compound 0.03 µM
  IC50: < 3.16 nM
Second compound 0.0949 µM
  IC50: < 3.16 nM
Second compound 0.3 µM
  IC50: < 3.16 nM
Second compound 0.000949 µM, first compound 0.00316 µM
  viability, T/C: 88.6%
Second compound 0.000949 µM, first compound 0.01 µM
  viability, T/C: 88.5%
[1]
  viability, T/C: 69.9%
[2]
  viability, T/C: 76%
[3]
  viability, T/C: 90.5%
[4]
  viability, T/C: 83.7%
Second compound 0.003 µM, first compound 0.00316 µM
  viability, T/C: 81.9%
Second compound 0.003 µM, first compound 0.01 µM
  viability, T/C: 67.8%
[5]
  viability, T/C: 58.8%
[6]
  viability, T/C: 63.8%
[7]
  viability, T/C: 71.8%
[8]
  viability, T/C: 56.1%
Second compound 0.00949 µM, first compound 0.00316 µM
  viability, T/C: 53.8%
Second compound 0.00949 µM, first compound 0.01 µM
  viability, T/C: 38.4%
[9]
  viability, T/C: 43.2%
[10]
  viability, T/C: 39.6%
[11]
  viability, T/C: 42.9%
[12]
  viability, T/C: 48.1%
Second compound 0.03 µM, first compound 0.00316 µM
  viability, T/C: 27.8%
Second compound 0.03 µM, first compound 0.01 µM
  viability, T/C: 31.3%
[13]
  viability, T/C: 29.7%
[14]
  viability, T/C: 30.9%
[15]
  viability, T/C: 29.2%
[16]
  viability, T/C: 40.9%
Second compound 0.0949 µM, first compound 0.00316 µM
  viability, T/C: 22%
Second compound 0.0949 µM, first compound 0.01 µM
  viability, T/C: 22.1%
[17]
  viability, T/C: 20.8%
[18]
  viability, T/C: 22%
[19]
  viability, T/C: 22%
[20]
  viability, T/C: 31.6%
Second compound 0.3 µM, first compound 0.00316 µM
  viability, T/C: 19.2%
Second compound 0.3 µM, first compound 0.01 µM
  viability, T/C: 18.9%
[21]
  viability, T/C: 19.1%
[22]
  viability, T/C: 20.3%
[23]
  viability, T/C: 22.4%
[24]
  viability, T/C: 32.7%

## C[C@@H](NC(=O)c1ncnc(N)c1Cl)c1ncc(C(=O)Nc2cc(C(F)(F)F)c(Cl)cn2)s1 + CCn1c(-c2cc(N3CCN(C)CC3)cnc2C(C)OC)c2c3cc(ccc31)-c1csc(n1)CC(NC(=O)C1CC1C)C(=O)N1CCCC(N1)C(=O)OCC(C)(C)C2
Second compound 0.000949 µM
  IC50: > 10000 nM
Second compound 0.003 µM
  IC50: > 10000 nM
Second compound 0.00949 µM
  IC50: > 10000 nM
Second compound 0.03 µM
  IC50: < 31.6 nM
Second compound 0.0949 µM
  IC50: < 31.6 nM
Second compound 0.3 µM
  IC50: < 31.6 nM
[1]
  viability, T/C: 98.8%
[2]
  viability, T/C: 114%
[3]
  viability, T/C: 82.7%
[4]
  viability, T/C: 97.9%
Second compound 0.000949 µM, first compound 3.16 µM
  viability, T/C: 106%
Second compound 0.000949 µM, first compound 10 µM
  viability, T/C: 76.4%
[5]
  viability, T/C: 89.8%
[6]
  viability, T/C: 73.5%
[7]
  viability, T/C: 71.6%
[8]
  viability, T/C: 79.2%
Second compound 0.003 µM, first compound 3.16 µM
  viability, T/C: 92.7%
Second compound 0.003 µM, first compound 10 µM
  viability, T/C: 62.3%
[9]
  viability, T/C: 54%
[10]
  viability, T/C: 49.3%
[11]
  viability, T/C: 54.7%
[12]
  viability, T/C: 63.3%
Second compound 0.00949 µM, first compound 3.16 µM
  viability, T/C: 58.9%
Second compound 0.00949 µM, first compound 10 µM
  viability, T/C: 52.7%
[13]
  viability, T/C: 35.3%
[14]
  viability, T/C: 35.2%
[15]
  viability, T/C: 39.9%
[16]
  viability, T/C: 35.4%
Second compound 0.03 µM, first compound 3.16 µM
  viability, T/C: 29.8%
Second compound 0.03 µM, first compound 10 µM
  viability, T/C: 40.1%
[17]
  viability, T/C: 22.9%
[18]
  viability, T/C: 24.8%
[19]
  viability, T/C: 25.7%
[20]
  viability, T/C: 27.2%
Second compound 0.0949 µM, first compound 3.16 µM
  viability, T/C: 23.6%
Second compound 0.0949 µM, first compound 10 µM
  viability, T/C: 26.3%
[21]
  viability, T/C: 21.2%
[22]
  viability, T/C: 23.5%
[23]
  viability, T/C: 22.2%
[24]
  viability, T/C: 19.9%
Second compound 0.3 µM, first compound 3.16 µM
  viability, T/C: 21.9%
Second compound 0.3 µM, first compound 10 µM
  viability, T/C: 22.6%
